Experimental data taken from patent US8546321B2, “IL-4-derived peptides for modulation of the chronic inflammatory response and treatment of autoimmune diseases” (Kobenhavns Universitet, priority 2008, dated 2013).
Where two headings read alike, the source gives them in different places.

Key:
[1] = tested on: cerebellar granular neurons (CGN); experiment: Neurite outgrowth assay in cultures of cerebellar granule neurons; type: cell-based, Wistar rats; conditions: P7 CGN, peptides added after plating, 24 h
Procedure: Cerebellar granular neurons (CGN) were prepared from 3 or 7 postnatal (P) day Wistar rats (Charles River, Sulzfeld, Germany or Taconic, Ejby, Denmark). Cerebella were cleared of meninges and blood vessels, roughly homogenized by chopping, and trypsinized with trypsin from Sigma-Aldrich (Brøndby, Denmark). The neurons were washed in the presence of DNAse 1 and soybean trypsin inhibitor (Sigma-Aldrich), and cellular debris was pelleted by centrifugation before plating. For single-cell culture experiments, P7 CGNs were plated at a density of 10,000 cells/well onto uncoated eight-well Lab-Tek chamber slides (NUNC, Slangerup, Denmark) in Neurobasal-A medium supplemented with 0.4% (w/v) BSA. Peptides at various concentrations were added to the medium immediately after plating, and cells were maintained at 37° C. and 5% CO2 for 24 h. Cultures then were fixed, blocked and incubated with polyclonal rabbit antibody against rat GAP-43 (Chemicon, Temecula, Calif., USA) followed by incubation with secondary Alexa Fluor488 goat anti-rabbit antibody (Molecular Probes, Eugene, Oreg., USA) as previously described (Neiiendam et al., 2004). The immunostained cultures were all recorded by computer-assisted fluorescence microscopy using a Nikon Diaphot inverted microscope (Nikon, Japan) equipped with a Nikon Plane 20× objective. Images were captured with a charge-coupled device video camera (Grundig Electronics, Nurnberg, Germany) using the software package Prima developed at the Protein Laboratory (University of Copenhagen, Copenhagen, Denmark). The length of neuronal processes per cell was estimated using the software package Process Length developed at the Protein Laboratory (Ronn et al. 2000). For estimation of neurite outgrowth, at least 200±20 cells were processed for each group in each individual experiment.

psoriasis = conditions: correcting imbalances in immune functions (Martin 2003); cited from earlier work
malignancies = conditions: in this dose and schedule (Whitehead et al., 1998); cited from earlier work
[2] = subcutaneous administration, cited from earlier work
[3] = repeated daily dosing; cited from earlier work

For “AERLKTIMREKYSKS (Variant of fragment of interleukin-4) [SEQ ID NO: 4]”, the “neuritogenic response from primary neurons” value (shortened to “neuritogenic response”) [1] was “induce a neuritogenic response”.

In the case of “ARFLKRLDRNLWGG (Variant of fragment of interleukin-4) [SEQ ID NO: 3]”, the “neuritogenic response” value [1] is reported as “induce a neuritogenic response”.

In the case of “rhulL-4: Escherichia coli-derived recombinant human interleukin-4”, the “benefit in patients with psoriasis” value (psoriasis) is given as “beneficial”, the antitumor activity (malignancies) is given as “only low antitumor activity” and the safety and tolerability ([2]; as high as 10 μg/kg administered 3 times/week) is given as “safe and well tolerated”. For the same substance, the safety and tolerability ([2]; doses as high as 5 μg/kg/day) was “safe and well tolerated” and the adverse effects [3] was “a number of adverse effects”.

In the case of “AQFHRHKQLIRFLKRA (Variant of fragment of interleukin-4) [SEQ ID NO: 1]”, the “neuritogenic response” value [1] is reported as “induce a neuritogenic response”.

For “AITLQEIIKTLNSA (Variant of fragment of interleukin-4) [SEQ ID NO: 2]”, the “neuritogenic response” value [1] was “induce a neuritogenic response”.
